The numbers were not newly measured in patent US20080248506A1, “Method of Monitoring Anti-Tumor Activity of an Hdac Inhibitor” (Pharmacyclics, Inc., priority 2004, published 2008), which cites them from elsewhere.

One series has as its system H2AX. The following applies: myeloid leukemia cell lines (HL60, K562, MDS92L; n=3).

For the compound `CC(/C=C/C(=O)NO)=C\[C@@H](C)C(=O)c1ccc(N(C)C)cc1` [Trichostatin], the H2AX phosphorylation entry with H2AX is “cause H2AX phosphorylation”. With `Nc1ccccc1NC(=O)c1ccc(CNC(=O)OCc2cccnc2)cc1` [MS-275], the γ-H2AX accumulation result in the series with γ-H2AX (compound by itself, no irradiation) was “does not produce γ-H2AX accumulation”. In addition, the “number of irradiated cells that express γ-H2AX foci” value in the series on γ-H2AX (with irradiation) was “increase the number of irradiated cells that express γ-H2AX foci”.
